Data as given in patent publication US20240034729A9, “HETEROCYCLIC COMPOUND, INTERMEDIATE, PREPARATION METHOD THEREFOR AND APPLICATION THEREOF” (WUHAN LL SCIENCE AND TECHNOLOGY DEVELOPMENT CO., LTD., priority 2018, published 2024).
pIC50: −log10 of the molar value. Like-named read-outs stand apart in the source and are kept apart here.

Biological target: hP2X3 (human purinergic P2X receptor subtype 3) (Homo sapiens (Human), UniProt P56373)
Assay: FLIPR calcium assay, hP2X3 expressed in HEK293 cells
Format: cell-based
Conditions: read-out: P2X3 IC50
[1] = HEK293 cells expressing hP2X3, agonist BZ-ATP 2.5 μM, class symbols

hP2X3 (human purinergic P2X receptor subtype 3), sequence (P56373 whole entry): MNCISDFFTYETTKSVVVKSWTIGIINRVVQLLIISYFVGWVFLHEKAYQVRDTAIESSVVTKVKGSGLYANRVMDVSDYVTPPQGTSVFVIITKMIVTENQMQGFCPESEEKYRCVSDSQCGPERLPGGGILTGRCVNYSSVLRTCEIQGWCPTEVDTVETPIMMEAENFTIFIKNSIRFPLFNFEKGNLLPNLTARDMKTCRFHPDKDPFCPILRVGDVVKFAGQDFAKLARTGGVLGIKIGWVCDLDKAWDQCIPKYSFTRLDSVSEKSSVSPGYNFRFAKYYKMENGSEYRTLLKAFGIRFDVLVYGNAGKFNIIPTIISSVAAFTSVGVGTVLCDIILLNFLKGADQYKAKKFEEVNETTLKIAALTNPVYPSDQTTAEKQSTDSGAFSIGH

COC(=O)N1CCO[C@@H](Cc2c(-c3c(F)cc(-n4ccc(C(C)(C)O)n4)cc3F)nc3cc(C)ccn23)C1 [Compound 126, methyl (S)-2-((2-(2,6-difluoro-4-(3-(2-hydroxypropan-2-yl)-1H-pyrazol-1-yl)phenyl)-7-methylimidazo[1,2-a]pyridin-3-yl)methyl)morpholine-4-carboxylate] gave a pIC50 of 7.30 to 8.00.

Compound COC(=O)N1CCO[C@@H](Cc2c(-c3c(F)cc(NC(=O)C4CCC(=O)CC4)cc3F)nc3cc(C)ccn23)C1 [Compound 83] has a pIC50 of 6.70 to 7.30.

CCC(=O)N1CCO[C@@H](Cc2c(-c3c(F)cc(NC(C)=O)cc3F)nc3cc(C)ccn23)C1 [Compound 156] was tested, and the pIC50 was greater than 8.00.

COC(=O)N1CCO[C@@H](Cc2c(-c3c(F)cc(-c4nc(C(F)(F)F)c[nH]4)cc3F)nc3cc(C)ccn23)C1 [Compound 37, methyl (S)-2-((2-(2,6-difluoro-4-(4-trifluoromethyl-1H-imidazol-2-yl)phenyl)-7-methylimidazo[1,2-a]pyridin-3-yl)methyl)morpholine-4-carboxylate] gave a pIC50 greater than 8.00.

For COC(=O)N1CCO[C@@H](Cc2c(-c3c(F)cc(NC(=O)CC4(C(=O)O)CC4)cc3F)nc3cc(C)ccn23)C1 [Compound 95], the pIC50 was 7.30 to 8.00.

For CNC(=O)c1cc(F)c(-c2nc3cc(C)ccn3c2CC(N)=O)c(F)c1 [Compound 19, 4-(3-(2-amino-2-oxoethyl)-7-methylimidazo[1,2-a]pyridine)-3,5-difluorobenzoylmethylamine], the pIC50 [1] was 5.30 to 6.70.

Compound COC(=O)N1CCO[C@@H](Cc2c(-c3c(F)cc(-n4ccc(C5(O)CC5)n4)cc3F)nc3cc(C)ccn23)C1 [Compound 131] has a pIC50 of 7.30 to 8.00.

COC(=O)N1CCO[C@@H](Cc2c(-c3c(F)cc(-c4ccn(C(F)F)n4)cc3F)nc3cc(C)ccn23)C1 [Compound 102] showed a pIC50 greater than 8.00.

CNC(c1cc(F)c(-c2nc3cc(C)ccn3c2C[C@H]2CN(C(=O)OC)CCO2)c(F)c1)C(F)(F)F (stereo partly drawn) [Compound 68, methyl (S)-2-((2-(2,6-difluoro-4-(2,2,2-trifluoro-1-(methylamino)ethyl)phenyl)-7-methylimidazo[1,2-a]pyridin-3-yl)methyl)morpholine-4-carboxylate] showed a pIC50 of 7.30 to 8.00.

In the case of CNS(=O)(=O)c1cc(F)c(-c2nc3cc(C)ccn3c2C[C@H]2CN(C(=O)OC)CCO2)c(F)c1 [Compound 43, methyl (S)-2-((2-(2,6-difluoro-4-(N-methylsulfamoyl)phenyl)-7-methylimidazo[1,2-a]pyridin-3-yl)methyl)morpholine-4-carboxylate], the pIC50 was greater than 8.00.

In the case of CCOC(=O)c1cn(-c2cc(F)c(-c3nc4cc(C)ccn4c3C[C@H]3CN(C(=O)OC)CCO3)c(F)c2)cn1 [Compound 51, methyl (S)-2-((2-(4-(4-(carbethoxy<ethoxycarbonyl>)-1H-imidazol-1-yl)-2,6-difluorophenyl)-7-methylimidazo[1,2-a]pyridin-3-yl)methyl)morpholine-4-carboxylate], the pIC50 was 6.70 to 7.30.

Compound COC(=O)N1CCO[C@@H](Cc2c(-c3c(F)cc(-n4cc(OC)cn4)cc3F)nc3cc(C)ccn23)C1 [Compound 129, methyl (S)-2-((2-(2,6-difluoro-4-(4-methoxy-1H-pyrazol-1-yl)phenyl)-7-methylimidazo[1,2-a]pyridin-3-yl)methyl)morpholine-4-carboxylate] has a pIC50 of 7.30 to 8.00.

CNC(=O)c1cc(F)c(-c2nc3cc(C)ccn3c2CN2CCOCC2=O)c(F)c1 [Compound 47, 3,5-difluoro-N-methyl-4-(7-methyl-3-((3-oxo-4-morpholinyl)methyl)imidazo[1,2-a]pyridin-2-yl)benzamide] gave a pIC50 [1] of 5.30 to 6.70.

COC(=O)N1CCO[C@@H](Cc2c(-c3cnc(NC(C)=O)[nH]3)nc3cc(C)ccn23)C1 [Compound 1] was tested, and the pIC50 [1] was 5.30 to 6.70.

COC(=O)N1CCO[C@@H](Cc2c(-c3c(F)cc(-c4nc(C5(O)CC5)co4)cc3F)nc3cc(C)ccn23)C1 [Compound 118] gave a pIC50 [1] of 5.30 to 6.70.

For COC(=O)N1CCO[C@@H](Cc2c(-c3c(F)cc(-n4ccc(C(C)(C)O)c4)cc3F)nc3cc(C)ccn23)C1 [Compound 135], the pIC50 was greater than 8.00.

COC(=O)N1CCC[C@@H](Cc2c(-c3c(F)cc(S(N)(=O)=O)cc3F)nc3cc(Cl)ccn23)C1 [Compound 188] gave a pIC50 of 8.05.

COC(=O)N1CCO[C@@H](Cc2c(-c3c(F)cc(-n4cnc(C(C)(C)O)c4)cc3F)nc3cc(C)ccn23)C1 [Compound 117, methyl (S)-2-((2-(2,6-difluoro-4-(4-(2-hydroxypropan-2-yl)-1H-imidazol-1-yl)phenyl)-7-methylimidazo[1,2-a]pyridin-3-yl)methyl)morpholine-4-carboxylate] showed a pIC50 of 7.30 to 8.00.

CCC(=O)N1CCO[C@@H](Cc2c(-c3c(F)cc(-c4nc(C#N)co4)cc3F)nc3cc(C)ccn23)C1 [Compound 121] was tested, and the pIC50 [1] was 5.30 to 6.70.

In the case of COC(=O)N1CCO[C@@H](Cc2c(-c3c(F)cc(-n4ccnc4)cc3F)nc3cc(F)ccn23)C1 [Compound 132], the pIC50 was greater than 8.00.

For COC(=O)N1CCO[C@@H](Cc2c(-c3c(F)cc(-c4nc(C#N)c[nH]4)cc3F)nc3cc(C)ccn23)C1 [Compound 38, methyl (S)-2-((2-(2,6-difluoro-4-(4-cyano-1H-imidazol-2-yl)phenyl)-7-methylimidazo[1,2-a]pyridin-3-yl)methyl)morpholine-4-carboxylate], the pIC50 was greater than 8.00.

CNC(=O)c1cc(F)c(-c2cc3cc(C)ccc3n2C[C@H]2CN(C(=O)OC)CCO2)c(F)c1 [Compound 40, methyl (S)-2-((2-(2,6-difluoro-4-(methylcarbamoyl)phenyl)-5-methyl-1H-indol-1-yl)methyl)morpholine-4-carboxylate] gave a pIC50 [1] of 5.30 to 6.70.

CNC(=O)c1cc(F)c(-c2[nH]c3cc(C)ccc3c2C[C@H]2CN(C(=O)OC)CCO2)c(F)c1 [Compound 39] gave a pIC50 [1] of 5.30 to 6.70.

For COC(=O)N1CCO[C@@H](Cc2c(-c3c(F)cc(-c4nc(Cl)c[nH]4)cc3F)nc3cc(C)ccn23)C1 [Compound 34, methyl (S)-2-((2-(4-(4-chloro-1H-imidazol-2-yl)-2,6-difluorophenyl)-7-methylimidazo[1,2-a]pyridin-3-yl)methyl)morpholine-4-carboxylate], the pIC50 was greater than 8.00.

COC(=O)N1CCO[C@@H](Cc2c(-c3c(F)cc(C(C)=O)cc3F)nc3cc(C)ccn23)C1 [Compound 14, methyl (S)-2-((2-(4-acetyl-2,6-difluorophenyl)-7-methylimidazo[1,2-a]pyridin-3-yl)methyl)morpholine-4-carboxylate] gave a pIC50 [1] of 5.30 to 6.70.

For COC(=O)N1CCO[C@@H](Cc2c(-c3c(F)cc(NC(C)=O)cc3F)nc3cc(F)ccn23)C1 [Compound 148], the pIC50 was greater than 8.00.

In the case of CCOC(=O)N1CCO[C@@H](Cc2c(C(=O)Nc3cc(F)cc(F)c3)nc3cc(C)ccn23)C1 [Compound 20], the pIC50 [1] was 5.30 to 6.70.

With COC(=O)N1CCO[C@@H](Cc2c(-c3c(F)cc(Nc4ccco4)cc3F)nc3cc(C)ccn23)C1 [Compound 74] the pIC50 was 6.70 to 7.30.

Work on COC(=O)N1CCO[C@@H](Cc2c(-c3c(F)cc(N4CCN(C)CC4=O)cc3F)nc3cc(C)ccn23)C1 [Compound 45, methyl (S)-2-((2-(2,6-difluoro-4-(4-methyl-2-oxopiperazin-1-yl)phenyl)-7-methylimidazo[1,2-a]pyridin-3-yl)methyl) morpholine-4-carboxylate] yielded a pIC50 [1] of 5.30 to 6.70.

For CNC(=O)c1cc(F)c(-c2nc3cc(C)ccn3c2CN2CCNC(=O)C2)c(F)c1 [Compound 31], the pIC50 [1] was 5.30 to 6.70.

COC(=O)N1CCO[C@@H](Cc2c(-c3c(F)cc(NC(C)=O)cc3F)nc3cc(CF)ccn23)C1 [Compound 150, methyl (S)-2-((2-(4-acetamido-2,6-difluorophenyl)-7-(fluoromethyl)imidazo[1,2-a]pyridin-3-yl)methyl)morpholine-4-carboxylate] was tested, and the pIC50 was greater than 8.00.

Compound COC(=O)N1CCO[C@@H](Cc2c(-c3c(F)cc(NCCCC(N)=O)cc3F)nc3cc(C)ccn23)C1 [Compound 77] has a pIC50 greater than 8.00.

COC(=O)N1CCO[C@@H](Cc2c(-c3c(F)cc(-c4ncco4)cc3F)nc3cc(F)ccn23)C1 [Compound 122] gave a pIC50 [1] of 5.30 to 6.70.

For CCC(=O)N1CCO[C@@H](Cc2c(-c3c(F)cc(NC(C)=O)cc3F)nc3cc(Cl)ccn23)C1 [Compound 154], the pIC50 was greater than 8.00.

COC(=O)N1CCO[C@@H](Cc2c(-c3c(F)cc(NC(C)=O)cc3F)nc3cc(C(F)(F)F)ccn23)C1 [Compound 153, methyl (S)-2-((2-(4-acetamido-2,6-difluorophenyl)-7-(trifluoromethyl)imidazo[1,2-a]pyridin-3-yl)methyl)morpholine-4-carboxylate] gave a pIC50 of 6.70 to 7.30.

COC(=O)N1CCO[C@@H](Cc2c(-c3c(F)cc(NC(=O)c4ccc(C(=O)O)cc4)cc3F)nc3cc(C)ccn23)C1 [Compound 85, (S)-4-((3,5-difluoro-4-(3-((4-(carbomethoxy<methoxycarbonyl>)morpholin-2-yl)methyl)-7-methylimidazo[1,2-a]pyridin-2-yl)phenyl)carbamoyl)benzoic acid] was tested, and the pIC50 was 6.70 to 7.30.

COC(=O)N1CCO[C@@H](Cc2c(-c3c(F)cc(-c4ncco4)cc3F)nc3cc(CF)ccn23)C1 [Compound 123] was tested, and the pIC50 was 6.70 to 7.30.

For CNC(=O)c1ccc(-c2nc3cc(C)ccn3c2C[C@H]2CN(C(=O)OC)CCO2)s1 [Compound 21, methyl (S)-2-((7-methyl-2-(5-(methylcarbamoyl)thiophen-2-yl)imidazo[1,2-a]pyridin-3-yl)methyl)morpholine-4-carboxylate], the pIC50 [1] was 5.30 to 6.70.

In the case of COC(=O)N1CCO[C@@H](Cc2c(-c3c(F)cc(NC4CCC(=O)CC4)cc3F)nc3cc(C)ccn23)C1 [Compound 80, methyl (S)-2-((2-(2,6-difluoro-4-((4-carbonylcyclohexyl)amino)phenyl)-7-methylimidazo[1,2-a]pyridin-3-yl)methyl) morpholine-4-carboxylate], the pIC50 was 7.30 to 8.00.

Work on COC(=O)N1CCO[C@@H](Cc2c(-c3c(F)cc(-n4cc(N)cn4)cc3F)nc3cc(C)ccn23)C1 [Compound 127, methyl (S)-2-((2-(4-(4-amino-1H-pyrazol-1-yl)-2,6-difluorophenyl)-7-methylimidazo[1,2-a]pyridin-3-yl)methyl)morpholine-4-carboxylate] yielded a pIC50 greater than 8.00.

With CNC(=O)c1c[nH]c(-c2nc3cc(C)ccn3c2C[C@H]2CN(C(=O)OC)CCO2)c1F [Compound 24] the pIC50 [1] was 5.30 to 6.70.
